Assay results published in patent US8987195B2 (priority 2012, dated 2015).
pEC50, pIC50: −log10 of the molar value. Where two headings read alike, the source gives them in different places.

What was measured:
[1] = system: HCV genotype 1b replicon; assay: HCV replicon assay, genotype 1b replicon EC50; assay type: cell-based, Hepatitis C virus; conditions: Hepatitis C virus, read-out: EC50 [gt-1b]
How it was run: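 Stable neomycin phosphotransferase-encoding replicon cell lines, kept under G418 selection beforehand, were plated with a compound dilution series without G418 and incubated 24-48 hours. Replicon RNA was then quantified, or luciferase activity read. EC50 was calculated as percent of DMSO control by four-parameter fit.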

[2] = molecular target: HCV NS3/4A protease genotype 1b (Hepatitis C virus genotype 1b, UniProt P26663); assay: HCV NS3/4A protease time-resolved fluorescence (TRF) assay, Ki against genotype 1b; assay type: biochemical; conditions: for pIC50: IC50 [gt-1b], NS3/4A protease TRF assay, genotype 1b enzyme 0.2 nM; for IC50: IC50 [gt-1b] (nM), NS3/4A genotype 1b, enzyme 0.2 nM
How it was run: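 NS3/4A enzyme was preincubated 30 min with inhibitor in 50 mM HEPES pH 7.5, 150 mM NaCl, 15% glycerol, 0.15% Triton X-100, 10 mM DTT, 0.1% PEG 8000; 25 nM europium TRF peptide substrate added, 2.5 h at room temperature. Enzyme: 0.2 nM (1b), 0.4 nM (A156T), 0.025 nM (3a). Ki from IC50 via Cheng-Prusoff.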

COc1ccc2nc(C(F)F)c3c(c2c1)CC[C@]1(C[C@H]2C(=O)N[C@]4(C(=O)NS(=O)(=O)C5(C)CC5)C[C@H]4/C=C\CCCCC[C@H](NC(=O)OC4(C)CCC4)C(=O)N2C1)O3 [Example 493, 1-methylcyclobutyl [(2R,6S,12Z,13aS,14aR,16aS)-5′-(difluoromethyl)-9′-methoxy-14a-{[(1-methylcyclopropyl)sulfonyl]carbamoyl}-5,16-dioxo-1,1′,2′,5,6,7,8,9,10,11,13a,14,14a,15,16,16a-hexadecahydrospiro[cyclopropa[e]pyrrolo[1,2-a][1,4]diazacyclopentadecine-2,3′-pyrano[2,3-c]quinolin]-6-yl]carbamate]
pEC50 ([1]; HCV replicon, genotype 1b, K+ salt): 9.55
pIC50 ([2]; K+ salt): 11.52

CCc1ccc2nc(C)c3c(c2c1)CC[C@]1(C[C@H]2C(=O)N[C@]4(C(=O)NS(=O)(=O)C5(C)CC5)C[C@H]4/C=C\CCCCC[C@H](NC(=O)OC(C)(C)C)C(=O)N2C1)O3 [Example 313, tert-butyl [(2R,6S,12Z,13aS,14aR,16aS)-9′-ethyl-5′-methyl-14a-{[(1-methylcyclopropyl)sulfonyl]carbamoyl}-5,16-dioxo-1,1′,2′,5,6,7,8,9,10,11,13a,14,14a,15,16,16a-hexadecahydrospiro[cyclopropa[e]pyrrolo[1,2-a][1,4]diazacyclopentadecine-2,3′-pyrano[2,3-c]quinolin]-6-yl]carbamate]
pEC50 ([1]; genotype 1b replicon): 8.54
IC50 [2]: 0.016 nM

COCC1(S(=O)(=O)NC(=O)[C@@]23C[C@H]2/C=C\CCCCC[C@H](NC(=O)OC(C)(C)C)C(=O)N2C[C@@]4(CCc5c(c(C(F)F)nc6ccc(OC)cc56)O4)C[C@H]2C(=O)N3)CC1 [Example 476, tert-butyl [(2R,6S,12Z,13aS,14aR,16aS)-5′-(difluoromethyl)-9′-methoxy-14a-({[1-(methoxymethyl)cyclopropyl]sulfonyl}carbamoyl)-5,16-dioxo-1,1′,2′,5,6,7,8,9,10,11,13a,14,14a,15,16,16a-hexadecahydrospiro[cyclopropa[e]pyrrolo[1,2-a][1,4]diazacyclopentadecine-2,3′-pyrano[2,3-c]quinolin]-6-yl]carbamate]
pEC50 ([1]; HCV replicon, genotype 1b): 8.36
pIC50 [2]: 10.92

Cc1nc2ccc(OC(F)(F)F)cc2c2c1O[C@]1(CC2)C[C@H]2C(=O)N[C@]3(C(=O)NS(=O)(=O)C4(C)CC4)C[C@H]3/C=C\CCCCC[C@H](NC(=O)OC3CCCC3)C(=O)N2C1 [Example 125, cyclopentyl [(2R,6S,12Z,13aS,14aR,16a5)-5′-methyl-14a-{[(1-methylcyclopropyl)sulfonyl]carbamoyl}-5,16-dioxo-9′-(trifluoromethoxy)-1,1′,2′,5,6,7,8,9,10,11,13a,14,14a,15,16,16a-hexadecahydrospiro[cyclopropa[e]pyrrolo[1,2-a][1,4]diazacyclopentadecine-2,3′-pyrano[2,3-c]quinolin]-6-yl]carbamate]
pEC50 ([1]; genotype 1b replicon): 8.43
IC50 [2]: 0.016 nM

CCCOC(=O)N[C@H]1CCCCC/C=C\[C@@H]2C[C@@]2(C(=O)NS(=O)(=O)C2(C)CC2)NC(=O)[C@@H]2C[C@]3(CCc4c(c(C(F)(F)F)nc5ccc(OC)cc45)O3)CN2C1=O [Example 448, propyl [(2R,6S,12Z,13aS,14aR,16aS)-9′-methoxy-14a-{[(1-methylcyclopropyl)sulfonyl]carbamoyl}-5,16-dioxo-5′-(trifluoromethyl)-1,1′,2′,5,6,7,8,9,10,11,13a,14,14a,15,16,16a-hexadecahydrospiro[cyclopropa[e]pyrrolo[1,2-a][1,4]diazacyclopentadecine-2,3′-pyrano[2,3-c]quinolin]-6-yl]carbamate]
pEC50 ([1]; HCV replicon, genotype 1b): 8.57
pIC50 [2]: 11.22

COc1ccc2nc(C)c3c(c2c1)[C@H](F)C[C@]1(C[C@H]2C(=O)N[C@]4(C(=O)NS(=O)(=O)C5(C)CC5)C[C@H]4/C=C\CCCCC[C@H](NC(=O)OC(C)(C)C(F)(F)F)C(=O)N2C1)O3 [Example 355, 1,1,1-trifluoro-2-methylpropan-2-yl [(1′R,2S,6S,12Z,13aS,14aR,16aS)-1′-fluoro-9′-methoxy-5′-methyl-14a-{[(1-methylcyclopropyl)sulfonyl]carbamoyl}-5,16-dioxo-1,1′,2′,5,6,7,8,9,10,11,13a,14,14a,15,16,16a-hexadecahydrospiro[cyclopropa[e]pyrrolo[1,2-a][1,4]diazacyclopentadecine-2,3′-pyrano[2,3-c]quinolin]-6-yl]carbamate]
pEC50 ([1]; genotype 1b replicon, K+ salt): 8.42
IC50 ([2]; K+ salt): 0.02 nM

Cc1nc2ccc(OC(F)(F)F)cc2c2c1O[C@]1(CC2)C[C@H]2C(=O)N[C@]3(C(=O)NS(=O)(=O)C4(C)CC4)C[C@H]3/C=C\CCCCC[C@H](NC(=O)OC3(C)CC3)C(=O)N2C1 [Example 122, 1-methylcyclopropyl [(2R,6S,12Z,13aS,14aR,16aS)-5′-methyl-14a-{[(1-methylcyclopropyl)sulfonyl]carbamoyl}-5,16-dioxo-9′-(trifluoromethoxy)-1,1′,2′,5,6,7,8,9,10,11,13a,14,14a,15,16,16a-hexadecahydrospiro[cyclopropa[e]pyrrolo[1,2-a][1,4]diazacyclopentadecine-2,3′-pyrano[2,3-c]quinolin]-6-yl]carbamate]
pEC50 ([1]; genotype 1b replicon): 8.70
IC50 [2]: 0.019 nM

Cc1nc2ccccc2c2c1O[C@]1(CC2)C[C@H]2C(=O)N[C@]3(C(=O)NS(=O)(=O)C4(C)CC4)C[C@H]3/C=C\CCCCC[C@H](NS(=O)(=O)C3CC3)C(=O)N2C1 [Example 230, (2R,6S,12Z,13aS,14aR,16aS)-6-[(cyclopropylsulfonyl)amino]-5′-methyl-N-[(1-methylcyclopropyl)sulfonyl]-5,16-dioxo-1,1′,2′,6,7,8,9,10,11,13a,14,15,16,16a-tetradecahydrospiro[cyclopropa[e]pyrrolo[1,2-a][1,4]diazacyclopentadecine-2,3′-pyrano[2,3-c]quinoline]-14a(5H)-carboxamide]
pEC50 ([1]; genotype 1b replicon): 7.24
IC50 [2]: 0.265 nM

Cc1nc2ccc(OCC(F)(F)F)cc2c2c1O[C@]1(CC2)C[C@H]2C(=O)N[C@]3(C(=O)NS(=O)(=O)C4(C)CC4)C[C@H]3/C=C\CCCCC[C@H](NC(=O)OC(C)(C)C)C(=O)N2C1 [Example 296, tert-butyl [(2R,6S,12Z,13aS,14aR,16aS)-5′-methyl-14a-{[(1-methylcyclopropyl)sulfonyl]carbamoyl}-5,16-dioxo-9′-(2,2,2-trifluoroethoxy)-1,1′,2′,5,6,7,8,9,10,11,13a,14,14a,15,16,16a-hexadecahydrospiro[cyclopropa[e]pyrrolo[1,2-a][1,4]diazacyclopentadecine-2,3′-pyrano[2,3-c]quinolin]-6-yl]carbamate]
pEC50 ([1]; genotype 1b replicon): 8.59
IC50 [2]: 0.009 nM

CC[C@H](C)OC(=O)N[C@H]1CCCCC/C=C\[C@@H]2C[C@@]2(C(=O)NS(=O)(=O)C2(C)CC2)NC(=O)[C@@H]2C[C@]3(CCc4c(c(C(F)F)nc5ccc(OC)nc45)O3)CN2C1=O [Example 525, (2S)-butan-2-yl [(2R,6S,12Z,13aS,14aR,16aS)-6′-(difluoromethyl)-2′-methoxy-14a-{[(1-methylcyclopropyl)sulfonyl]carbamoyl}-5,16-dioxo-1,5,6,7,8,9,9′,10,10′,11,13a,14,14a,15,16,16a-hexadecahydrospiro[cyclopropa[e]pyrrolo[1,2-a][1,4]diazacyclopentadecine-2,8′-pyrano[2,3-c][1,5]naphthyridin]-6-yl]carbamate]
pEC50 ([1]; HCV replicon, genotype 1b): 8.94
pIC50 [2]: 11.40
